The values that follow come from paper PMC9786103, “Potent and Selective Inhibition of CYP1A2 Enzyme by Obtusifolin and Its Chemopreventive Effects” (Pharmaceutics, 2022).

As usually defined, the IC50 is the concentration needed to halve the response being measured. For orientation: Ki means the equilibrium dissociation constant of an inhibitor or competing ligand from its target.

One series addresses T1, CYP2C9 (Homo sapiens, UniProt P11712).
T1 construct: Mixtures of pooled HLM, P450 substrates, and obtusifolin; tissue XenoTech XTreme 200; host or cells: pooled human liver microsomes
The series is described as follows: Tolbutamide 4-hydroxylation in human liver microsomes. The format is biochemical. The following applies: HLMs. On the technique in general: Liver microsomes are a subcellular fraction often used to study metabolism.

The target of a further series is T2, rCYP1A2 (Homo sapiens, UniProt P05177).
T2 construct: purchased SPMED (Busan, Republic of Korea)
T2 sequence (P05177 1-516): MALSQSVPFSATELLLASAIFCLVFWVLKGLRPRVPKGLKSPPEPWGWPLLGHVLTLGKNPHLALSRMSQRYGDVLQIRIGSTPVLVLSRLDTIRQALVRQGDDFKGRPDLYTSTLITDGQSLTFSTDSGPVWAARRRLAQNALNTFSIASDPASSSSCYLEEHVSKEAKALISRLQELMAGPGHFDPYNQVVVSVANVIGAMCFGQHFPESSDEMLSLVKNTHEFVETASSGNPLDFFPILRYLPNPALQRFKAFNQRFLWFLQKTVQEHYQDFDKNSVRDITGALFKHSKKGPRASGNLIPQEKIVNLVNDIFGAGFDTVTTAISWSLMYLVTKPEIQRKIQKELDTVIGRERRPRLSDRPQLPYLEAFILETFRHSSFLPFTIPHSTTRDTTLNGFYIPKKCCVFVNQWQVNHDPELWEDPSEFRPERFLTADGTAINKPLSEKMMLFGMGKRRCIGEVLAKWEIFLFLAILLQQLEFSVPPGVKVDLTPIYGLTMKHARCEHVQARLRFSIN
The series is described as follows: Ethoxyresorufin O-deethylation (EROD) in recombinant CYP1A2. To be noted: rCYP1A2 10 pmol/mL, 7-ethoxyresorufin 2 µM, 20 min; read-out: IC50, CYP1A2-mediated EROD. In kind it is biochemical. The method, then: The inhibitory effects of obtusifolin on the CYP1A-mediated ethoxyresorufin O-deethylation (EROD) activity of rCYP1A1 and rCYP1A2 enzymes (10 pmol/mL) were investigated. […] The other conditions, except for the incubation time (20 min), were similar to those used in the P450 inhibition study, as described earlier.

The test system of the next series is other P450s. The series is described as follows: Inhibition of other P450s in human liver microsomes (summary). In kind it is biochemical. The following applies: HLMs, P450s other than CYP1A2; read-out: IC50 against other P450s.
The conditions of series [1]: read-out: Maximum concentration (Cmax) of obtusifolin in rat blood, cited from earlier work.
Series [2] deals with T3, CYP1A2 (Homo sapiens, UniProt P05177).
T3 sequence (P05177 1-516): T2 sequence (P05177 1-516)
The series is described as follows: Time-dependent inhibition assay (IC50 shift) of CYP1A2-mediated POD in pHLMs. The format is biochemical. Also on record: tissue XenoTech XTreme 200; host or cells: pooled human liver microsomes. The method, then:
The IC50 shift approach was applied to assess the time-dependent inhibition of CYP1A2 by obtusifolin [18]. For 30 min, obtusifolin was pre-incubated with pHLMs in the presence of NGS. The reaction was started with 100 µM phenacetin and then incubated for 15 min. Following reaction termination and centrifugation, aliquots of the supernatants were subjected to LC-MS/MS analysis.

In series [3] the target is T3, CYP1A2. The series is described as follows: Kinetic characterization of inhibition of CYP1A2-mediated POD in human liver microsomes. The format is biochemical. Details: tissue XenoTech XTreme 200; host or cells: pooled human liver microsomes. To be noted: HLMs; for Type of inhibition of CYP1A2-mediated POD: Lineweaver-Burk and Dixon plots. An excerpt: The other conditions were similar to those used in the P450 inhibition study, as described earlier.
WinNonlin software (Pharsight, Mountain View, CA, USA) was used to calculate IC50 values. Based on Lineweaver–Burk double reciprocal plots, secondary plots of Lineweaver–Burk plots versus obtusifolin concentrations, and visual inspection of Dixon plots, the type of inhibition and apparent kinetic parameters for inhibitory activity (Ki) were estimated.

Structures are written as SMILES. Like-named read-outs stand apart in the source and are kept apart here. Some results are limits rather than exact numbers.

T1 sequence (P11712 whole entry): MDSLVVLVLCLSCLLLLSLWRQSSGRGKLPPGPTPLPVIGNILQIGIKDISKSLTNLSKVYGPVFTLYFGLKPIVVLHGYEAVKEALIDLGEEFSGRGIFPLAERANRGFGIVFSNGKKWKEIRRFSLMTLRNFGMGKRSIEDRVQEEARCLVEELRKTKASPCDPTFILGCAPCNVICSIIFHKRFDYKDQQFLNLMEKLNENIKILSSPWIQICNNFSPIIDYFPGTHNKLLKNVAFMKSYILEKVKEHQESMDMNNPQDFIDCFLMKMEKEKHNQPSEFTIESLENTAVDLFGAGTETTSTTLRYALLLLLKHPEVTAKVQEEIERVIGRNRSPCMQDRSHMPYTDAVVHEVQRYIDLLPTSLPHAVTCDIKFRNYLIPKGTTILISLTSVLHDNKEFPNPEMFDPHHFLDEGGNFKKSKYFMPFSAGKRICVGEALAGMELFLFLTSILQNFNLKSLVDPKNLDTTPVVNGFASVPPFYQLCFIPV
Protocol for CYP2C9: The following P450 isoform-specific substrates were used: coumarin (CYP2A6); bupropion (CYP2B6); amodiaquine (CYP2C8); tolbutamide (CYP2C9); omeprazole (CYP2C19); dextromethorphan (CYP2D6); chlorzoxazone (CYP2E1); and midazolam (CYP3A). […] NGS was introduced to start the reaction, which was followed by an additional incubation (15 min). Following reaction termination, aliquots of the supernatants were analyzed with LC-MS/MS.
Reverse phase column (Kinetex XB-C18, 100 × 2.10 mm; Phenomenex, Torrance, CA, USA) and triple-quadrupole mass spectrometer (LCMS 8060, Shimadzu, Kyoto, Japan) with an ultra high-performance LC system (Nexera X2, Shimadzu) analyze all the metabolites. […] For each metabolite, quantitation was carried out in selected reaction monitoring (SRM) mode using the following precursor-to-product ion transition: m/z 152 > 110 for acetaminophen (CYP1A2), m/z 214 > 186 for resorufin (CYP1A1 and CYP1A2), m/z 163 > 107 for 7-hydroxycoumarin (CYP2A6), m/z 256 > 238 for 6-hydroxybupropion (CYP2B6), m/z 328 > 283 for N-desethylamodiaquine (CYP2C8), m/z 287 > 89 for 5-hydroxytolbutamide (CYP2C9), m/z 362 > 214 for 4-hydroxyomeprazole (CYP2C9), m/z 258 > 157 for dextrorphan (CYP2D6), m/z 184 > 120 for 6-hydroxychlorzoxazone (CYP2E1), m/z 342 > 203 for 1′-hydroxymidazolam (CYP3A), and m/z 295 > 100 for trimipramine (IS) [23, 24].
Description for other P450s: The inhibitory potential of obtusifolin against the biotransformation of eight P450 probe substrates was examined using previously reported methods with slight changes [21, 22]. The following P450 isoform-specific substrates were used: coumarin (CYP2A6); bupropion (CYP2B6); amodiaquine (CYP2C8); tolbutamide (CYP2C9); omeprazole (CYP2C19); dextromethorphan (CYP2D6); chlorzoxazone (CYP2E1); and midazolam (CYP3A). Mixtures of pooled HLM, P450 substrates, and obtusifolin (0, 0.05, 0.2, 0.5, 2, 5, or 10 µM for CYP1A2; and 0, 0.5, 2, 5, 20, or 50 µM for the other P450 isoforms) were pre-incubated (5 min, 37 °C). NGS was introduced to start the reaction, which was followed by an additional incubation (15 min). Following reaction termination, aliquots of the supernatants were analyzed with LC-MS/MS.

For `COc1c(O)c(C)cc2c1C(=O)c1c(O)cccc1C2=O` [Obtusifolin, obtusifolin], the IC50 is 28600 nM on CYP2C9; 570 ± 110 nM on rCYP1A2; > 28600 nM with other P450s; 130 nM at CYP1A2 [2] (30 min preincubation with pHLMs and NGS, phenacetin 100 µM). In addition, the Cmax was 860 nM in series [1] (single oral Semen Cassiae extracts 1.25 g/kg (5.01 mg/g obtusifolin)) and 540 nM in series [1] (single oral obtusifolin 1.3 mg/kg). Moreover, the “Time dependence of CYP1A2 inhibition” value at CYP1A2 [2] (IC50 shift approach) was “time-independent inhibition”. At CYP1A2 [2] (human, pooled human liver microsomes, probe phenacetin (100 µM), 30 min preincubation with NGS vs without, pHLMs), the IC50 shift at 15 min came out at 1.46. On CYP1A2 [3] (phenacetin 20, 50, 100 µM, read-out: Ki, CYP1A2-mediated phenacetin O-deethylation), the Ki amounted to 110 ± 20 nM. Besides, the “Type of inhibition of CYP1A2-mediated POD” value at CYP1A2 [3] was “competitive”; on CYP1A2 [3] (listed as obtusifolin) it was “competitive inhibition”.
